Experimental data from Sander's compilation of Henry's law constants (doi:10.1016/j.chemosphere.2015.07.075).

Assay: Henry solubility constant Hcp at 298.15 K (mol/(m3 Pa))
Settings: reference: Copolovici and Niinemets (2015)

Henry solubility constant Hcp | SMILES
0.00032 | C=CC(C)(O)CC/C=C(\C)CCC=C(C)C (stereo not drawn) [nerolidol]
0.00029 | CC1C=CCC2(C)C3CCC12CC3(C)C (stereo not drawn) [γ-neoclovene]
0.00029 | C/C1=C\CC/C(C)=C/CC(C)(C)/C=C/C1 [α-humulene]
0.00033 | C=C(C)[C@H]1C=C2[C@H](C)CC[C@@H]2[C@H](C)CC1 [γ-gurjunene]
0.00039 | C=C1[C@H]2C[C@H]3[C@@H](C(C)C)CC[C@]1(C)[C@H]3C2 [isosativene]
0.00029 | C=C1CCCC2(C)C3CCC12CC3(C)C (stereo not drawn) [β-neoclovene]
0.00034 | C=C/C(C)=C/C/C=C(\C)CCC=C(C)C [α-farnesene]
0.00038 | CC(=O)O[C@H]1C[C@H]2CC[C@]1(C)C2(C)C [bornyl acetate]
0.00029 | CC1=CCCC2(C)C3CCC12CC3(C)C (stereo not drawn) [α-neoclovene]
0.00034 | CC1=CCC2C3C1C2(C)CCCC3(C)C (stereo not drawn) [α-longipinene]
0.00032 | C=C(C)C1CCC2=CCCC(C)C2(C)C1 (stereo not drawn) [valencene]
0.00028 | CC1=CCC23C[C@H]1C(C)(C)[C@H]2CC[C@@H]3C [α-cedrene]
0.00037 | C=C1CC/C=C(\C)CC[C@H]2[C@H]1CC2(C)C [β-caryophyllene]
